Values of other authors as cited in PMC9298350 (British Journal of Clinical Pharmacology, 2021).

Which “Frequency of metamizole-associated agranulocytosis” value does the source give for `Cc1c(N(C)CS(=O)(=O)O)c(=O)n(-c2ccccc2)n1C` [metamizole, Metamizole] here?
Its value is 0.46–1.63 cases per 10^6 daily doses.

What about the “Mortality associated with ingestion” value (review of the available literature) of the same compound?
The value was 0.25 per 10^6 prescriptions.
